“And” between values parts separate entries of the source, which are not always exact repeats. Equal values may be shown once.
Legend:
corneal epithelium = assay: Corneal epithelial thickness after H&E staining, EDE rabbit model; format: in vivo; details: all treatment groups (0.1%, 0.2%, 0.4%), vs vehicle, p<0.001
Text: The extracted eyes were washed with phosphate-buffered saline (PBS), fixed in the modified Davidson's solution, and embedded in paraffin (Histocore Arcadia, Leica, Wetzlar, Germany). Afterwards, paraffin blocks were sliced into sections of a ˜6 μm thickness, mounted on microscope slides (HistoCore AUTOCUT, Leica, Germany), air dried, and stained with hematoxylin-eosin. The stained tissue slides were imaged, and data were obtained using an optical microscope/digital slide scanner (Axio Scan.Z1, Zeiss, Oberkochen, Germany). Image measurement was performed using ZEN (Zeiss, Germany) and ImageJ (NIH, Bethesda, […], USA) software programs.
The pathophysiology of dry eye syndrome includes pathological changes in the epithelium such as erosion, cicatrix, scar, corneal neovascularization and, in severe conditions, corneal perforation. The protective effect of (PEG)-BHD1028 on the epithelium was evaluated by measuring the corneal thickness using ZEN (Zeiss, Germany) microscopy software program after H&E tissue staining.

[1] = Osmotic pressure of trehalose-only formulations; format: physicochemical; details: trehalose-only formulation
Description: The osmotic pressure of the trehalose-only formulations according to the (PEG)-BHD1028 content (see Table 5) and the osmotic pressure of the trehalose-mannitol composite formulations according to the (PEG)-BHD1028 content (see Table 6) were measured, and reflecting the experimental results, the osmolarity including the 0.5% (PEG)-BHD1028 concentration was adjusted to about 300 mOsm/kg.

[2] = tested on: mouse experimental dry eye (EDE) model; assay: Tear film break-up time (TBUT), EDE mouse model; format: in vivo
Description: To confirm the pharmacological effect and appropriate dosage, a pilot study was first conducted with the mice. In addition, a rabbit DED (Dry Eye Disease) model with a large exposed facial area was evaluated in comparison with a mouse model. In the mouse experimental dry eye (EDE) model, scopolamine hydrobromide (Sigma-Aldrich. St. Louis, MO, USA) was subcutaneously injected three times a day (9 a.m., 1:30 p.m., 6 p.m.) in a room exposed to ventilation with an ambient humidity of less than 40% at 25±2° C. to induce DED.
The mice were randomly divided into five groups: (1) EDE (experimental dry eye) control mice without eye drops administration, (2) EDE mice treated with a vehicle (phosphate-buffered saline), (3) EDE mice treated with 0.001% (PEG)-BHD1028 (4) EDE mice treated with 0.01% (PEG)-BHD1028, and (5) EDE mice treated with 0.1% (PEG)-BHD1028. All the treatment groups received 2 μL of eye drops three times a day.
TBUT is the time elapsed between the last blink and the first appearance of fluorescein decomposition, and it is an indicator of tear film stability. TBUT was evaluated by administering 1 μL of 1% fluorescein sodium dye to the lower conjunctival sac of the mice and visualizing the tear film using cobalt blue light of a slit-lamp biomicroscope. The measurement was repeated three times to obtain an average value.
Tear film instability is an important pathological characteristic of DED and the most common indicator of tear quality. […] The improvement in the 0.01% (PEG)-BHD1028 group was greater than that in the 0.001% (PEG)-BHD1028 group on Day 10 (p<0.05), but there was no difference between 0.01% and 0.1%.

## NH2-Tyr-Tyr-Phe-Ala-Tyr-His-Pro-Asn-Ile-Pro-Gly-Leu-Tyr-Tyr-Phe-COOH (H-YYFAYHPNIPGLYYF-OH; also: PEGylated, site not given here (mPEG), acetate salt) [(PEG)-BHD1028]
Corneal epithelium
  mean corneal epithelial thickness: significantly greater than that of the vehicle treated animals
[1]; 0.5%
  osmotic pressure, Mean: 300.33 mOsm/kg
  osmotic pressure, single measurements #1-#3: 299 mOsm/kg and 301 mOsm/kg
[1]; 1.5%
  osmotic pressure, Mean: 308.67 mOsm/kg
  osmotic pressure, single measurements #1-#3: 310 mOsm/kg and 309 mOsm/kg and 307 mOsm/kg
[1]; 4.5%
  osmotic pressure, Mean: 335.00 mOsm/kg
  osmotic pressure, single measurements #1-#3: 335 mOsm/kg
[2]; 0.001%, Day 5
  TBUT: 1.333 ± 0.081 s
[2]; 0.001%, Day 10
  TBUT: 1.359 ± 0.140 s
[2]; 0.01%, Day 5
  TBUT: 1.406 ± 0.082 s
[2]; 0.01%, Day 10
  TBUT: 1.530 ± 0.137 s
[2]; 0.1%, Day 5
  TBUT: 1.408 ± 0.095 s
[2]; 0.1%, Day 10
  TBUT: 1.483 ± 0.113 s

— patent US20240408167A1, “COMPOSITION FOR TREATING OCULAR DISEASES CONTAINING PEPTIDE” (Encuragen Inc., priority 2023, published 2024)
